From publication PMC4306314, “Differential neuroprotective potential of CRMP2 peptide aptamers conjugated to cationic, hydrophobic, and amphipathic cell penetrating peptides” (Frontiers in Cellular Neuroscience, 2015)
Read-outs that look alike come from different tables or passages of the source. Where no end group is shown, it is not given here.

Key:
[1] = test system: cortical neurons; experiment: Glutamate-induced toxicity, chromogenic cell viability assay; type: cell-based, rat; conditions: for Prevention of Glu/Gly-induced neuronal cell death by NMDAR subunit blockers: Ifenprodil 1 µM, Peaqx 5 µM, 10 min before and during 200 µM glutamate/20 µM glycine 30 min, 7 DIV, viability 24 h later, 32 wells
Protocol: E19 neurons (grown in 96 well plates) were stimulated with 200 µM glutamate/20 µM glycine to induce neuronal death as previously described with modifications (Brittain et al., [2011a]). Neurons were pre-treated with peptides by removing half of the culture medium and replacing with fresh medium containing twice the final concentration of peptide. Neurons were then stimulated by removing half the medium and replacing with fresh medium containing 400 µM glutamate/40 µM glycine and 1X peptide concentration. Following a 30 min stimulation the medium was completely removed and replaced with half fresh/half conditioned medium. Cell viability was quantified 24 h later using the 3-(4,5-dimethylthiazol-2-yl)-5-(3-carboxymethoxyphenyl)-2-(4-sulfophenyl)-2H-tetrazolium cell viability assay (Promega, Madison, WI, USA) as previously described (Brittain et al., [2011a]). Subunit-specific NMDAR antagonists Peaqx (NR2A) and Ifenprodil (NR2B) were purchased from Sigma.

[2] = of the CPP itself; ref Sarko et al., 2010; cited from earlier work
[3] = test system: GPMVs derived from cortical neurons; experiment: Peptide penetration into giant plasma membrane vesicles (GPMVs), di-4-ANEPPDHQ staining; type: in vitro ADME, rat; conditions: 10 µM peptide; for Change in percent of GPMVs with intracellular staining, vesicles from Glu/Gly-challenged vs unchallenged cells: neurons challenged 1 h with 200 µM glutamate + 20 µM glycine before vesiculation
Protocol: Giant plasma membrane vesicles (GPMVs) were obtained as previously described in Sezgin et al. ([2012]). Briefly, GPMVs were generated from cortical neurons incubated at 37°C for 90 min in a vesiculation buffer containing 10 mM HEPES, 150 mM NaCl, 2 mM CaCl2, pH 7.4 containing 2 mM N-ethyl maleimide (NEM). After GPMV formation, the buffer containing vesicles was recovered and conserved at 4°C for at least 2 h to allow the vesicles to concentrate at the bottom of the tube. As the GPMVs were stable for ~48 h (data not shown), they were used the day after formation at the latest.
All experiments for microscopic analyses of GPMVs were performed on 35 mm glass bottom dishes pre-coated with BSA (1 mg/mL for 1 h at room temperature). Approximately 100 µL of GMPVs labeled with 5 µM di-4-ANEPPDHQ were incubated for 3 h at room temperature with 10 µM of CBD3 peptide aptamers. di-4-ANEPPDHQ, a styryl dye that was originally developed to detect transmembrane potential changes, is considered to be a good probe for rafts (Jin et al., [2005]) and was used to label GPMVs. di-4-ANEPPDHQ is able to partition into both liquid-ordered and liquid-disordered phase domains in model membranes, reacts to the environmental difference between the two phases via conformational changes, thus resulting in different fluorescence properties (Jin et al., [2005]). Here, we studied the 500–550 nm emission of the probe, which accounts largely for the liquid ordered phase.
Fluorescence imaging was performed with an inverted microscope, Nikon Eclipse TE2000-U, using objective Nikon Super Fluor 20× 0.75 NA and a Photometrics cooled CCD camera CoolSNAPHQ-ES2 (Roper Scientific, Tucson, AZ, USA) controlled by MetaFluor 6.3 software (Molecular Devices, Downingtown, PA, USA). […] Twenty images of each condition were systematically recorded randomly, using a FITC filter (excitation and emission wavelength 488 nm and 500–550 nm, respectively), which accounted for the liquid ordered contribution of di-4-ANEPPDHQ or the localization of FITC-peptides.

[4] = test system: cortical neurons; experiment: Uptake and efflux of FITC-labeled CBD3 peptides from cortical neurons; type: in vitro ADME, rat; conditions: for Cumulative efflux (AUC), glutamate-challenged vs unchallenged cells, long-term application: chronic peptide treatment, media sampled up to 3 h
Protocol: Cortical neurons were seeded into 96-well plates at 3.5 × 10^4 cells per well and cultured until 7 DIV at 37°C and 5% CO2. […] After four washes with phenol red free Leibovitz medium, the FITC fluorescence in the cells was measured using a Synergy 2 fluorescent plate reader (Biotek, Winooski, VT, USA) at an excitation wavelength of 485 nm and emission wavelength of 530 nm. […] To correct for any differences in cell plating, at the end of the experiment cortical neurons were lysed with 20 mM Tris, pH 7.4, 50 mM NaCl, 1% NP40, 0.5% sodium deoxycholate, 0.1% SDS Protease inhibitor cocktail set III (Calbiochem), phosphatase inhibitor cocktail set I (Calbiochem), 50 U/ml benzonase (Merck) and the protein quantity determined with a Pierce assay.

[5] = biological target: T1, CRMP2-NR2B interaction (Rattus norvegicus, UniProt Q00960); experiment: Co-immunoprecipitation of NR2B with CRMP2 from rat brain lysates; type: binding; conditions: 10 µM peptide, overnight 4°C, rat brain lysate, immunoblot, n = 4
T1 construct: Rat brains were lysed into the immunoprecipitation buffer; from tissue; host or cells: rat brain
T1 sequence (Q00960 27-1482, other chains not shown): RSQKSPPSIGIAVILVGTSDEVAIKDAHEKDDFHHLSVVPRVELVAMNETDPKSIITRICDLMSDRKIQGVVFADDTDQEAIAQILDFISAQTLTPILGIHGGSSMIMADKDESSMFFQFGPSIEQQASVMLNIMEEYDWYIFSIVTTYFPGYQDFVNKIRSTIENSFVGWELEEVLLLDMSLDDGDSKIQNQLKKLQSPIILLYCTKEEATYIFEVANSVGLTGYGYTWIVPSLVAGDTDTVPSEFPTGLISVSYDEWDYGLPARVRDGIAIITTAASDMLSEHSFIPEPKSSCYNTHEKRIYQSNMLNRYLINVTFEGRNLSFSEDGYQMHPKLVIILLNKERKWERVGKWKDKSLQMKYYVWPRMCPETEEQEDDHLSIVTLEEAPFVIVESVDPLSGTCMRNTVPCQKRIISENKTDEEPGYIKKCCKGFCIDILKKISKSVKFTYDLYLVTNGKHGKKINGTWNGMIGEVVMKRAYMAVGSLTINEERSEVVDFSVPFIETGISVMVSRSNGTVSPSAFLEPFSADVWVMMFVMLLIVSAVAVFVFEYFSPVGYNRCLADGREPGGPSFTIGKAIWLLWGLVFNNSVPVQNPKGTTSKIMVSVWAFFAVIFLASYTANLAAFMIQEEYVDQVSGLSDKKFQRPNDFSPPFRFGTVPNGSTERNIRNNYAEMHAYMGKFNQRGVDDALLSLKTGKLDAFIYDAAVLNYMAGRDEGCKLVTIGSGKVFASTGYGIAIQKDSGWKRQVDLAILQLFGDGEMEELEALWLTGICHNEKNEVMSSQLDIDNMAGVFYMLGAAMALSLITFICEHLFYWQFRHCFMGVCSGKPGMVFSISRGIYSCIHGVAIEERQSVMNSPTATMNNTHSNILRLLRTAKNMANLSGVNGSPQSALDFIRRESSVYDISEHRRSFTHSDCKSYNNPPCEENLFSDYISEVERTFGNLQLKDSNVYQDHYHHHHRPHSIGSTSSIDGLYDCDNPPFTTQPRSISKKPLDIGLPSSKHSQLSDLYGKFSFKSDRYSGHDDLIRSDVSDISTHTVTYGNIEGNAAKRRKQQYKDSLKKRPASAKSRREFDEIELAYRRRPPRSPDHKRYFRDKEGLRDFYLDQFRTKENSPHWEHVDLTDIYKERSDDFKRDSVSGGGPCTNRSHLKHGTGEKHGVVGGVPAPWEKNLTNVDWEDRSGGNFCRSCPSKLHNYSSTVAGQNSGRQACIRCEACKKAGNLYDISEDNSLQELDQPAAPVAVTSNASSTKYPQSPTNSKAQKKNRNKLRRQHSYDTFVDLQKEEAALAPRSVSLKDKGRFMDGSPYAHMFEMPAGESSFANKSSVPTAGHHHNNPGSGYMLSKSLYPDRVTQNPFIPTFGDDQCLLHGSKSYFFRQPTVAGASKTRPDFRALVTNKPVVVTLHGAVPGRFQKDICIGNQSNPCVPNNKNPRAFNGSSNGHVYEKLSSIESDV
Protocol: Rat brains were lysed into the immunoprecipitation buffer containing 20 mM Tris-HCl pH 7.4, 50 mM NaCl, 2 mM MgCl2, 1% (vol/vol) NP40, 0.5% (mass/vol) sodium deoxycholate with Protease/phosphatase inhibitors cocktails (Calbiochem) and Benzonase (50 U/mL^−1), using a dounce homogenizer. The lysates were clarified by centrifugation at 10000 g, 10 min, 4°C then total protein concentration was determined by BCA protein assay (Cat# PI23225, Thermo scientific). For the co-immunoprecipitation, 300 µg of total protein was incubated with 1 µg of CRMP2 antibody (Cat# C2993, Sigma, St. Louis, MO, USA) of non-specific rabbit IgG, in the presence of 10 µM of the indicated peptides and incubated overnight at 4°C under gentle agitation. Protein G magnetic beads (Cat# 10004D, Life Technologies) pre-equilibrated with the immunoprecipitation buffer, were added to the mixture and allowed to incubate for 1 h at 4°C to capture the immuno-complexes. The beads were washed four times with the immunoprecipitation buffer before re-suspension in Laemmli buffer and boiling at 95°C for 5 min prior to immunoblotting.
Indicated samples were loaded on 4–12% NuPAGE® gels (Life Technologies). […] Films were scanned, and quantified using Un-Scan-It gel version 6.1 scanning software (Silk Scientific Inc, Orem, UT, USA).

[6] = set-up: method as in Wender et al., 2000; conditions: ref Wender et al., 2000; cited from earlier work

## CC(C(O)c1ccc(O)cc1)N1CCC(Cc2ccccc2)CC1 (centres unmarked) [Ifenprodil, reference compound]
[1]
  Prevention of Glu/Gly-induced neuronal cell death by NMDAR subunit blockers: completely prevent

## C[C@H](NC(c1cccc2[nH]c(=O)c(=O)[nH]c12)P(=O)(O)O)c1ccc(Br)cc1 (some centres unmarked) [Peaqx, reference compound]
[1]
  Prevention of Glu/Gly-induced neuronal cell death by NMDAR subunit blockers: not

## AAVALLPAVLLALLAP [MTS]
[2]
  Half-life (t1/2): ~ 48 h

## AAVALLPAVLLALLAPARSRLAELRGVPRGL [MTS-CBD3]
[3]
  Change in percent of GPMVs with intracellular staining, vesicles from Glu/Gly-challenged vs unchallenged cells: did not alter
[4]
  Cumulative efflux (AUC), glutamate-challenged vs unchallenged cells, long-term application: ~ 24%

## KLALKLALKALKAALKLA [MAP]
[2]
  Half-life (t1/2): > 72 h

## KLALKLALKALKAALKLAARSRLAELRGVPRGL [MAP-CBD3]
[5]
  Inhibition of NR2B-CRMP2 interaction relative to no peptide control: ~ 60%

## RRRRRRRRR [R9, nona-arginine, cationic cell penetrating peptide]
[2]
  Half-life (t1/2): ~ 2 h
[6]
  Penetration compared to TAT: greater than 20 fold

## RRRRRRRRRARSRLAELRGVPRGL [R9-CBD3]
[5]
  Inhibition of NR2B-CRMP2 interaction relative to no peptide control: ~ 80%
[1]; 24 h
  IC50: ~564 nM

## YGRKKRRQRRR [TAT]
[2]
  Half-life (t1/2): ~ 9 h

## YGRKKRRQRRRARSRLAELRGVPRGL [TAT-CBD3]
[3]; GPMVs from control (untreated) cortical neurons, 5 µM di-4-ANEPPDHQ, room temperature, 3 h (methods) or 60 min, fluorescence microscopy, n = 2 experiments
  Percent of GPMVs exhibiting lumenal accumulation of smaller vesicles: ~ 54%
[3]
  Change in percent of GPMVs with intracellular staining, vesicles from Glu/Gly-challenged vs unchallenged cells: did not alter
[4]; 1, 2 and 3 h post peptide application, irrespective of excitotoxic challenge
  Efflux fluorescence compared to MTS-CBD3-treated cells, long-term application: lower
[4]
  Cumulative efflux (AUC), glutamate-challenged vs unchallenged cells, long-term application: indistinguishable
[1]; concentration-response viability curve, four-parameter fit, variable Hill slope, 32 wells from two experiments, extrapolated, read-out: IC50 for inhibition of glutamate-mediated toxicity
  IC50: 3200 nM
